Laboratory results reported in patent US10399966B2, “Compounds for treatment of trypanosomes and neurological pathogens and uses thereof” (The University of North Carolina at Chapel Hill, priority 2016, dated 2019).
Where two headings read alike, the source gives them in different places.

Columns and labels:
[1] = test system: T. b. brucei; assay: In vitro antitrypanosomal activity against T. brucei (growth inhibition); type: cell-based, Trypanosoma brucei; details: for EC50: read-out: T. b. brucei EC50; for EC90: read-out: T. b. brucei EC90
Method: Primary hits from the screen were further characterized using a dose-response assay format to determine the EC50. In parallel, the cytotoxicities of these compounds were determined against a proliferating human hepatoma cell line (Huh7). […] SI—CC50/EC50). The final set of confirmed T. brucei hits consisted of 1035 inhibitors. […] In vitro antitrypanosomal activities against T. b. rhodesiense (STIB9000) and cytotoxicities against L6 rat myoblast cells were measured following established protocols (Orhan et al., Mar. Drugs 8:47 (2010). […] All wells including negative controls contained a final of 0.4% DMSO. After incubation of the plates at 37° C. for 48 h, the parasite density was determined using the CellTiter-Glo reagent (Promega), a firefly luciferase assay system that measures the amount of cellular ATP present in plate wells.

[2] = test system: Trypanosoma cruzi; assay: Efficacy against T. cruzi in vitro; type: cell-based; details: Trypanosoma cruzi; Table 16; read-out: T. Cruzi EC50
[3] = test system: human lymphocytes CRL-8155; assay: Cytotoxicity against CRL-8155 cells; details: human lymphoblasts
Method: The selectivity of each compound for the parasite over each of the two cell lines was calculated.

[4] = test system: human hepatocytes HepG2; assay: Cytotoxicity against HepG2 cells

Row | Compound | EC50 ([1]; Trypanosoma brucei, Table 16) | EC50 [2] | EC50 ([1]; Trypanosoma brucei, Table 17) | EC90 ([1]; Trypanosoma brucei, Table 17) | also measured
1 | O=C(Nc1ccn2cc(-c3cccc(F)c3)nc2c1)N1CCCC1 [Compound 48, N-[2-(3-fluorophenyl)imidazo[1,2-a]pyridin-7-yl]pyrrolidine-1-carboxamide] | 730 nM | 2950 nM |  |  | 
2 | O=C(Nc1ccn2cc(-c3cccc(F)c3)nc2c1)N1CCCCC1 [Compound 49, N-[2-(3-fluorophenyl)imidazo[1,2-a]pyridin-7-yl]piperidine-1-carboxamide] | 970 nM | 3100 nM |  |  | 
3 | O=C(Nc1ccn2cc(-c3ccccc3)nc2c1)N1CC[C@H](F)C1 [Compound 50, (3S)-3-fluoro-N-{2-phenylimidazo[1,2-a]pyridin-7-yl}pyrrolidine-1-carboxamide] | 620 nM | 1080 nM |  |  | 
4 | O=C(Nc1ccn2cc(-c3ccccc3)nc2c1)N1CCCC1 [Compound 51, N-{2-phenylimidazo[1,2-a]pyridin-7-yl}pyrrolidine-1-carboxamide] | 2230 nM | 4460 nM |  |  | 
5 | O=C(Nc1ccn2cc(-c3ccccc3)nc2c1)N1CCCCC1 [Compound 52, N-{2-phenylimidazo[1,2-a]pyridin-7-yl}piperidine-1-carboxamide] | 2510 nM | 2750 nM |  |  | 
6 | O=C(Nc1cc2nc(-c3ccc(F)c(F)c3)cn2cn1)N1CC[C@H](F)C1 [Compound 53, (3S)-N-[2-(3,4-difluorophenyl)imidazo[1,2-c]pyrimidin-7-yl]-3-fluoropyrrolidine-1-carboxamide] | 20 nM | 90 nM |  |  | 
7 | O=C(Nc1ccn2cc(-c3ccc(F)c(F)c3)nc2n1)N1CC[C@H](F)C1 [Compound 54, (3S)-N-[2-(3,4-difluorophenyl)imidazo[1,2-a]pyrimidin-7-yl]-3-fluoropyrrolidine-1-carboxamide] | > 20000 nM | 2530 nM |  |  | 
8 | O=C(Nc1ccc2sc(-c3ccc(F)c(F)c3)nc2c1Br)N1CC[C@H](F)C1 [Compound 55] |  |  | > 20000 nM | > 20 µM | 
9 | O=C(Nc1cnc2sc(-c3ccc(F)c(F)c3)nc2c1)N1CC[C@H](F)C1 [Compound 56, (S)-2-(3,4-Difluorophenyl)-5-(3-fluoro-N-pyrrolidylamido)-7-azabenzothiazole] |  |  | 181 nM | 0.364 µM | 
10 | O=C(Nc1ccc2sc(-c3ccc(F)c(F)c3)nc2c1)c1cnco1 [Compound 58, N-(2-(3,4-Difluorophenyl)benzo[d]thiazol-5-yl)oxazole-5-carboxamide] |  |  | > 20000 nM | > 20 µM | 
11 | Cc1nc(C(=O)Nc2ccc3sc(-c4ccc(F)c(F)c4)nc3c2)c(C)o1 [Compound 60] |  |  | > 20000 nM | > 20 µM | 
12 | O=C(Nc1ccc2sc(-c3ccc(F)c(F)c3)nc2c1)c1cncs1 [Compound 61] |  |  | 3830 nM | 7.37 µM | 
13 | Cc1nc(C)c(C(=O)Nc2ccc3sc(-c4ccc(F)c(F)c4)nc3c2)s1 [Compound 62] |  |  | > 20000 nM | > 20 µM | 
14 | N=C(N)c1ccc(OCCCCCOc2ccc(C(=N)N)cc2)cc1 [penth, Pentamidine, reference compound] |  |  |  |  | EC50 ([3]; read-out: CRL-8155 EC50, concentration required to inhibit growth by 50%): 45.4 µM; EC90 ([3]; read-out: CRL-8155 EC90, concentration required to inhibit growth by 90%): > 100 µM; EC50 ([1]; Trypanosoma brucei, Table 11): 1.05 nM; EC50 ([4]; Homo sapiens, HepG2, read-out: HepG2 EC50): > 100 µM; EC90 ([4]; read-out: HepG2 EC90, concentration required to inhibit growth by 90%, human hepatocytes): > 100 µM
15 | N-(2-(3,4-Difluorophenyl)benzo[d]thiazol-5-yl)oxazole-4-carboxamide [Compound 57] |  |  |  |  | EC50 ([1]; Table 17): > 20000 nM; EC90 ([1]; Table 17): > 20 µM
